The values below come from patent US20090209536A1, “AMINOQUINAZOLINE CANNABINOID RECEPTOR MODULATORS FOR TREATMENT OF DISEASE” (KALYPSYS, INC., priority 2007, published 2009).

The target in test [1] is T1, human cannabinoid receptor type 2 (Homo sapiens, UniProt P34972).
T1 construct: expressed in transfected cells; membrane preparation
In words: Human CB2 Radioligand Binding Assay. The following applies: membranes from stably transfected CHO CB2 cells. In a few lines: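 Test compounds (10 uM final, or dose-response) competed with [3H]CP-55,940, used at the Kd determined per membrane lot, for binding to stable human CB2-CHO membranes over 90 min at 30° C in pH 7.4 Tris/EGTA/MgCl2/BSA buffer. GF/C filtration then scintillation counting; 100 nM CP-55,940 defined 100% efficacy.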

The target in test [2] is T2, human cannabinoid receptor type 1 (Homo sapiens, UniProt P21554).
T2 construct: purchased Perkin Elmer RBHCB1M; host or cells: HEK 293 EBNA cells
T2 sequence (P21554 whole entry): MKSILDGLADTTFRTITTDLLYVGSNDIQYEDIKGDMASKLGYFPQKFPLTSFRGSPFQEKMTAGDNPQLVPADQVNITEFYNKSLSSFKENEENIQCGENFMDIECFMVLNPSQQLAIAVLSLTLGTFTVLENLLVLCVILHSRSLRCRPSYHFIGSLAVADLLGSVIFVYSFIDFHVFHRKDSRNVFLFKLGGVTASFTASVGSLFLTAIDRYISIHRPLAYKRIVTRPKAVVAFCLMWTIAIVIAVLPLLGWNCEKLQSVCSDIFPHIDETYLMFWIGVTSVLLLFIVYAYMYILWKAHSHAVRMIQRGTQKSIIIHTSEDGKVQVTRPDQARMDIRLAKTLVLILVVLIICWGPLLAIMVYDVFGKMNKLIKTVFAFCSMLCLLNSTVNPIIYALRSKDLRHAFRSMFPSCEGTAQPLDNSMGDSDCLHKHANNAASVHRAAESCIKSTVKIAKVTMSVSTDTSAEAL
The test can be described thus: Human CB1 Radioligand Binding Assay (basis of selectivity, CB2 vs. CB1). The following applies: CB1: HEK 293 EBNA cells expressing human CB1; CB2: CHO CB2 membranes. How it is done:
2. Human CB1 Radioligand Binding Assay
The incubation buffer was composed of 50 mM Tris-HCl pH 7.4, 2.5 mM EDTA, 5 mM MgCl2, 5.0 mg/ml fatty acid free BSA and the wash buffer was composed of 50 mM Tris-HCl pH 7.4, 2.5 mM EDTA, 5 mM MgCl2, 0.5 mg/ml fatty acid free BSA.

Setting [3] is: CB2 Ligand Binding Asssay EC50, competition with [3H] CP-55,940.
The mark [4] stands for this setting: competition with [3H] CP-55,940, read-out: CB2 Ligand Binding Asssay EC50.

Read-outs that look alike come from different tables or passages of the source.

T1 sequence (P34972 whole entry): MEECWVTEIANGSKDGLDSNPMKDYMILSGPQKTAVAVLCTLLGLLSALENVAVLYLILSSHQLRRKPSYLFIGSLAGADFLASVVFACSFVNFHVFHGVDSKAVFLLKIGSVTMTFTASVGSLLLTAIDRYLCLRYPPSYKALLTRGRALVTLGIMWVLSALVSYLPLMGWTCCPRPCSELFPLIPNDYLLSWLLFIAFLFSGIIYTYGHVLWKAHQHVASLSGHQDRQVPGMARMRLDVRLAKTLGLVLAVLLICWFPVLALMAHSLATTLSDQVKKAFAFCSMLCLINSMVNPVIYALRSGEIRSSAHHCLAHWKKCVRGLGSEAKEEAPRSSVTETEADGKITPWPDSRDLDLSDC

The term EC50 denotes the concentration giving half of the maximal effect. For the compound `CC(C)(C)OC(=O)N1CCN(c2nc(-c3ccccc3Cl)nc3ccccc23)C(=O)C1` [Example 75, tert-Butyl 4-(2-(2-Chlorophenyl)quinazolin-4-yl)-3-oxopiperazine-1-carboxylate], the EC50 in test [1] (setting [3]) was above 1000 nM. Moreover, the “Selectivity, CB2 vs. CB1” value in test [2] is recorded as “− (− indicates ≦ 10−fold)”.
Take `CN1CCN(c2nc(-c3ccccc3Cl)nc3ccccc23)CC1=O` [Example 76, 4-(2-(2-Chlorophenyl)quinazolin-4-yl)-1-methylpiperazin-2-one]: the EC50 in test [1] (setting [4]) is above 1000 nM. In addition, the “Selectivity, CB2 vs. CB1” value in test [2] is recorded as “− (− indicates ≦ 10−fold)”.
The like results for `C[C@@H]1CN(c2nc(-c3ccccc3Cl)nc3ccccc23)C[C@H](C)N1` [Example 77, 2-(2-Chlorophenyl)-4-((3S,5R)-3,5-dimethylpiperazin-1-yl)quinazoline] were, in that order, above 1000 nM and “− (− indicates ≦ 10−fold)”.
Turning to `C[C@@H]1CN(c2nc(-c3ccccc3Cl)nc3ccccc23)C[C@H](C)N1C` [Example 78, 2-(2-Chlorophenyl)-4-((3S,5R)-3,4,5-trimethylpiperazin-1-yl)quinazoline], the concentration giving a half-maximal response (EC50) in test [1] (setting [4]) was below 1000 nM. Moreover, in test [2], the “Selectivity, CB2 vs. CB1” value is “− (− indicates ≦ 10−fold)”.
Consider `CCCN1[C@H](C)CN(c2nc(-c3ccccc3Cl)nc3ccccc23)C[C@@H]1C` [Example 79, 2-(2-Chlorophenyl)-4-((3S,5R)-3,5-dimethyl-4-propylpiperazin-1-yl)quinazoline], for which, in test [1] (setting [4]), the EC50 was below 1000 nM. In addition, the “Selectivity, CB2 vs. CB1” value in test [2] is recorded as “− (− indicates ≦ 10−fold)”.
Consider `CCN1[C@H](C)CN(c2nc(-c3ccccc3Cl)nc3ccccc23)C[C@@H]1C` [Example 80, 2-(2-Chlorophenyl)-4-((3S,5R)-4-ethyl-3,5-dimethylpiperazin-1-yl)quinazoline], for which the EC50 in test [1] (setting [4]) was below 1000 nM. Also, in test [2], the “Selectivity, CB2 vs. CB1” value is given as “− (− indicates ≦ 10−fold)”.
Take `CN(c1ccc(C(C)(C)C)cc1)c1nc(-c2ccccc2Cl)nc2ccccc12` [Example 81, (4-tert-Butylphenyl)-[2-(2-chlorophenyl)quinazolin-4-yl]methylamine]: the EC50 in test [1] (setting [4]) is above 1000 nM. In addition, the “Selectivity, CB2 vs. CB1” value in test [2] is “− (− indicates ≦ 10−fold)”.
With `Clc1ccccc1-c1nc(N2CCNCC2)c2ccccc2n1` [Example 82, 2-(2-Chlorophenyl)-4-piperazin-1-ylquinazoline], the EC50 in test [1] (setting [4]) was above 1000 nM. In addition, the “Selectivity, CB2 vs. CB1” value in test [2] was “− (− indicates ≦ 10−fold)”.
Take `CC(C)S(=O)(=O)N1CCN(c2nc(-c3ccccc3Cl)nc3ccccc23)CC1` [Example 83, 2-(2-Chlorophenyl)-4-[4-(propane-2-sulfonyl)piperazin-1-yl]quinazoline]: the EC50 in test [1] (setting [3]) was above 1000 nM. Besides, the “Selectivity, CB2 vs. CB1” value in test [2] is “− (− indicates ≦ 10−fold)”.
As for `CCCS(=O)(=O)N1CCN(c2nc(-c3ccccc3Cl)nc3ccccc23)CC1` [Example 84, 2-(2-Chlorophenyl)-4-(4-(propylsulfonyl)piperazin-1-yl)quinazoline], the EC50 in test [1] (setting [4]) was above 1000 nM. The “Selectivity, CB2 vs. CB1” value in test [2] is reported as “− (− indicates ≦ 10−fold)”.
In test [1] (setting [3]), `CCS(=O)(=O)N1CCN(c2nc(-c3ccccc3Cl)nc3ccccc23)CC1` [Example 85, 2-(2-Chlorophenyl)-4-(4-(ethylsulfonyl)piperazin-1-yl)quinazoline] had an EC50 above 1000 nM. For the same compound, in test [2], the “Selectivity, CB2 vs. CB1” value is on record as “− (− indicates ≦ 10−fold)”.
As for `CS(=O)(=O)N1CCN(c2nc(-c3ccccc3Cl)nc3ccccc23)CC1` [Example 86, 2-(2-Chlorophenyl)-4-(4-(methylsulfonyl)piperazin-1-yl)quinazoline], the EC50 in test [1] (setting [4]) is below 1000 nM. The “Selectivity, CB2 vs. CB1” value in test [2] is recorded as “− (− indicates ≦ 10−fold)”.
On to `CCNC(=O)N1CCN(c2nc(-c3ccccc3Cl)nc3ccccc23)CC1` [Example 87, 4-(2-(2-chlorophenyl)quinazolin-4-yl)-N-ethylpiperazine-1-carboxamide], for which, in test [1] (setting [4]), the half-maximal effective concentration (EC50) was above 1000 nM. In test [2], the “Selectivity, CB2 vs. CB1” value is reported as “− (− indicates ≦ 10−fold)”.
Take `CNC(=O)N1CCN(c2nc(-c3ccccc3Cl)nc3ccccc23)CC1` [Example 88, 4-(2-(2-Chlorophenyl)quinazolin-4-yl)-N-methylpiperazine-1-carboxamide]: in test [1] (setting [4]), the EC50 is above 1000 nM. Moreover, the “Selectivity, CB2 vs. CB1” value in test [2] is reported as “− (− indicates ≦ 10−fold)”.
The like results for `CC(C)(C)NC(=O)N1CCN(c2nc(-c3ccccc3Cl)nc3ccccc23)CC1` [Example 89, N-tert-Butyl-4-(2-(2-chlorophenyl)quinazolin-4-yl)piperazine-1-carboxamide] were, in that order, above 1000 nM and “− (− indicates ≦ 10−fold)”.
`CC(C)NC(=O)N1CCN(c2nc(-c3ccccc3Cl)nc3ccccc23)CC1` [Example 90, 4-(2-(2-Chlorophenyl)quinazolin-4-yl)-N-isopropylpiperazine-1-carboxamide]: in test [1] (setting [3]), the EC50 is above 1000 nM. The “Selectivity, CB2 vs. CB1” value in test [2] is “− (− indicates ≦ 10−fold)”.
The like results for `CCCNC(=O)N1CCN(c2nc(-c3ccccc3Cl)nc3ccccc23)CC1` [Example 91, 4-(2-(2-Chlorophenyl)quinazolin-4-yl)-N-propylpiperazine-1-carboxamide] were, in that order, above 1000 nM and “− (− indicates ≦ 10−fold)”.
As to `COC(=O)N1CCN(c2nc(-c3ccccc3Cl)nc3ccccc23)CC1` [Example 92, Methyl 4-(2-(2-Chlorophenyl)quinazolin-4-yl)piperazine-1-carboxylate], the EC50 in test [1] (setting [4]) was above 1000 nM. In addition, the “Selectivity, CB2 vs. CB1” value in test [2] was “− (− indicates ≦ 10−fold)”.
In the case of `CC(C)OC(=O)N1CCN(c2nc(-c3ccccc3Cl)nc3ccccc23)CC1` [Example 93, Isopropyl 4-(2-(2-chlorophenyl)quinazolin-4-yl)piperazine-1-carboxylate], in test [1] (setting [3]), the EC50 is above 1000 nM. Also, the “Selectivity, CB2 vs. CB1” value in test [2] is “+ (+ indicates > 10−fold)”.
Take `CCCOC(=O)N1CCN(c2nc(-c3ccccc3Cl)nc3ccccc23)CC1` [Example 94, Propyl 4-(2-(2-chlorophenyl)quinazolin-4-yl)piperazine-1-carboxylate]: the EC50 in test [1] (setting [4]) was above 1000 nM. In addition, the “Selectivity, CB2 vs. CB1” value in test [2] was “− (− indicates ≦ 10−fold)”.
The like results for `CCCC(=O)N1CCN(c2nc(-c3ccccc3Cl)nc3ccccc23)CC1` [Example 95, 1-(4-(2-(2-Chlorophenyl)quinazolin-4-yl)piperazin-1-yl)butan-1-one] were, in that order, below 1000 nM and “+ (+ indicates > 10−fold)”.
The corresponding values for `CC(C)C(=O)N1CCN(c2nc(-c3ccccc3Cl)nc3ccccc23)CC1` [Example 96, 1-(4-(2-(2-Chlorophenyl)quinazolin-4-yl)piperazin-1-yl)-2-methylpropan-1-one] are below 1000 nM and “+ (+ indicates > 10−fold)”.
The corresponding values for `O=C(C1CC1)N1CCN(c2nc(-c3ccccc3Cl)nc3ccccc23)CC1` [Example 97, (4-(2-(2-Chlorophenyl)quinazolin-4-yl)piperazin-1-yl)(cyclopropyl)methanone] are below 1000 nM and “+ (+ indicates > 10−fold)”.
Regarding `CCC(=O)N1CCN(c2nc(-c3ccccc3Cl)nc3ccccc23)CC1` [Example 98, 1-(4-(2-(2-Chlorophenyl)quinazolin-4-yl)piperazin-1-yl)propan-1-one], the EC50 in test [1] (setting [4]) was below 1000 nM. For the same compound, in test [2], the “Selectivity, CB2 vs. CB1” value is reported as “+ (+ indicates > 10−fold)”.
On to `CC(=O)N1CCN(c2nc(-c3ccccc3Cl)nc3ccccc23)CC1` [Example 99, 1-(4-(2-(2-Chlorophenyl)quinazolin-4-yl)piperazin-1-yl)ethanone], for which, in test [1] (setting [4]), the half-maximal effective concentration (EC50) was below 1000 nM. In addition, in test [2], the “Selectivity, CB2 vs. CB1” value is given as “+ (+ indicates > 10−fold)”.
`CC1(C)C(C(=O)N2CCN(c3nc(-c4ccccc4Cl)nc4ccccc34)CC2)C1(C)C` [Example 100, (4-(2-(2-Chlorophenyl)quinazolin-4-yl)piperazin-1-yl)(2,2,3,3-tetramethylcyclopropyl)methanone] came in with an EC50 in test [1] (setting [3]) above 1000 nM. Also, the “Selectivity, CB2 vs. CB1” value in test [2] is “− (− indicates ≦ 10−fold)”.
Regarding `CN(C)C(=O)C1CCN(c2nc(-c3ccccc3Cl)nc3ccccc23)CC1` [Example 102, 1-(2-(2-Chlorophenyl)quinazolin-4-yl)-N,N-dimethylpiperidine-4-carboxamide], the EC50 in test [1] (setting [4]) is above 1000 nM. The “Selectivity, CB2 vs. CB1” value in test [2] was “− (− indicates ≦ 10−fold)”.
For `O=C(N1CCN(c2nc(-c3ccccc3Cl)nc3ccccc23)CC1)C(F)(F)F` [Example 103, 1-(4-(2-(2-Chlorophenyl)quinazolin-4-yl)piperazin-1-yl)-2,2,2-trifluoroethanone], in test [1] (setting [4]), the EC50 was below 1000 nM. For the same compound, the “Selectivity, CB2 vs. CB1” value in test [2] is “− (− indicates ≦ 10−fold)”.
With `FC(F)(F)CN1CCN(c2nc(-c3ccccc3Cl)nc3ccccc23)CC1` [Example 104, 2-(2-chlorophenyl)-4-(4-(2,2,2-trifluoroethyl)piperazin-1-yl)quinazoline], the concentration for a half-maximal effect (EC50) in test [1] (setting [4]) was below 1000 nM. The “Selectivity, CB2 vs. CB1” value in test [2] was “− (− indicates ≦ 10−fold)”.
With `CCN1CCN(c2nc(-c3ccccc3Cl)nc3ccccc23)CC1` [Example 105, 2-(2-chlorophenyl)-4-(4-ethylpiperazin-1-yl)quinazoline], the EC50 in test [1] (setting [4]) was below 1000 nM. In test [2], the “Selectivity, CB2 vs. CB1” value is “+ (+ indicates > 10−fold)”.
